Source: patent US12419305B2, “Antimicrobial compositions” (Firmenich SA, priority 2018, dated 2025)
Read-outs that look alike come from different tables or passages of the source.

How the values were obtained:
C. xerosis ATCC 373 = assay: BCT test (bacterial contact time), 120 s, log reduction / effect fraction; CI by Compusyn; type: cell-based; settings: Corynebacterium xerosis, ATCC373, 2 min, contact 120 s, 25% EtOH; for log reduction at 0.25 % strength: dose 0.25% w/v; for log reduction at 0.5 % strength: dose 0.5% w/v; for log reduction at 0.6 % strength: dose 0.6% w/v
Outline: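 C. xerosis cells grown in BHI-TW80 at 37 °C to OD600 1.6 were exposed to ethanolic perfume compositions for 120 s. Viable counts (log CFU) came from serial dilution and OD600 growth after 37 °C incubation, giving log reduction versus ethanol control. CI was computed from concentrations and effect fractions, with <0.9 taken as synergy.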

S. haemolyticus 114126 = assay: as above; type: cell-based; settings: Staphylococcus haemolyticus, 114126, 2 min, contact 120 s, 25% EtOH; for log reduction at 0.25 % strength: dose 0.25% w/v; for log reduction at 0.5 % strength: dose 0.5% w/v; for log reduction at 1 % strength: dose 1.0% w/v; for log reduction at 1.25 % strength: dose 1.25% w/v; for log reduction at 1.5 % strength: dose 1.5% w/v
Outline: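 S. haemolyticus 114126 (skin isolate), grown to OD600 1-2 in BHI-TW80 and resuspended at 1-5×10^8 CFU/mL, was mixed 1:1 with ethanolic perfume compositions or ethanol alone for 45, 60 or 120 s. Viable counts came from serial-dilution regrowth (37 °C, turbidity OD600), giving log reduction versus ethanol control; CI was computed from concentration–effect fraction pairs.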

E. coli ATCC 10536 = assay: BCT test (bacterial contact time), 45 s, log reduction / effect fraction; CI by Compusyn; type: cell-based, Escherichia coli; settings: Escherichia coli, ATCC10536, 45 s
Outline: (§1)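 Log-phase cultures (OD600 1-2) were resuspended in TSB at about 1×10^8 bacteria/mL and mixed 1:1 with ethanolic perfume combinations or single ingredients, five replicates each. After the stated contact time, serial dilutions were grown at 37° C and viable counts derived from OD600 turbidity; log reduction is versus ethanol control.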

[1] = system: Pseudomonas aeruginosa ATCC 15442; assay: BCT test (bacterial contact time), 60 s, log reduction / effect fraction; CI by Compusyn; type: cell-based; settings: Pseudomonas aeruginosa, ATCC15442, 1 min, BCT 60 s, in 25% EtOH; for log reduction at 0.3 % strength: Dose 0.3 % w/v; for log reduction at 0.4 % strength: Dose 0.4 % w/v
Outline: as §1

[2] = system: Salmonella enterica ATCC 10708; assay: as above; type: cell-based; settings: Salmonella enterica, ATCC10708, 1 min, BCT 60 s, in 25% EtOH
Outline: as §1

[3] = dose 0.3% w/v, read-out: Log reduction
[4] = dose 0.4% w/v, read-out: Log reduction

C/C=C/c1ccc(O)c(OC)c1 [Isoeugenol, 2-Methoxy-4-(prop-1-en-1-yl)phenol]
log reduction at 0.25 % strength (C. xerosis ATCC 373; read-out: Log reduction): 2.4
log reduction at 0.3 % strength (C. xerosis ATCC 373; [3]): 3.4
log reduction at 0.4 % strength (C. xerosis ATCC 373; [4]): 5
log reduction at 0.5 % strength (C. xerosis ATCC 373): 6.3
log reduction at 0.6 % strength (C. xerosis ATCC 373): 6.6
log reduction at 0.15 % strength (S. haemolyticus 114126; dose 0.15% w/v): -0.3
log reduction at 0.2 % strength (S. haemolyticus 114126; dose 0.2% w/v): 0.5
log reduction at 0.25 % strength (S. haemolyticus 114126; read-out: Log reduction): 2.2
log reduction at 0.3 % strength (S. haemolyticus 114126; [3]): 3.7
log reduction at 0.35 % strength (S. haemolyticus 114126; dose 0.35% w/v): 5.6
log reduction at 0.4 % strength (S. haemolyticus 114126; [4]): 7.2
log reduction at 0.05 % strength (E. coli ATCC 10536; dose 0.05% w/v, contact 45 s, 20% EtOH): 0.1
log reduction at 0.07 % strength (E. coli ATCC 10536; dose 0.07% w/v, contact 45 s, 20% EtOH): 0.8
log reduction at 0.09 % strength (E. coli ATCC 10536; dose 0.09% w/v, contact 45 s, 20% EtOH): 2.9
log reduction at 0.1 % strength (E. coli ATCC 10536; dose 0.1% w/v, contact 45 s, 20% EtOH, read-out: Log reduction): 4.9
log reduction at 0.12 % strength (E. coli ATCC 10536; dose 0.12% w/v, contact 45 s, 20% EtOH, read-out: Log reduction): 7.4
log reduction at 0.125 % strength ([1]; Dose 0.125 % w/v): 7.5
log reduction at 0.15 % strength ([1]; Dose 0.15 % w/v): 7.5
log reduction at 0.05 % strength ([2]; Dose 0.05 % w/v, read-out: Log reduction): -0.1
log reduction at 0.06 % strength ([2]; Dose 0.06 % w/v): 0
log reduction at 0.075 % strength ([2]; Dose 0.075 % w/v): 4
log reduction at 0.08 % strength ([2]; Dose 0.08 % w/v): 4
log reduction at 0.08 % strength ([2]; Dose 0.080 % w/v): 0.8
log reduction at 0.1 % strength ([2]; Dose 0.1 % w/v, read-out: Log reduction): 2.6
log reduction at 0.1 % strength ([2]; Dose 0.10 % w/v, read-out: Log reduction): 6.9
log reduction at 0.11 % strength ([2]; Dose 0.110 % w/v): 7.5
log reduction at 0.12 % strength ([2]; Dose 0.120 % w/v, read-out: Log reduction): 7.2

O=c1ccc2ccccc2o1 [Coumarine, 2H-chromen-2-one]
log reduction at 0.75 % strength (C. xerosis ATCC 373; dose 0.75% w/v): -0.2
log reduction at 1 % strength (C. xerosis ATCC 373; dose 1.0% w/v): 0.8
log reduction at 1.25 % strength (C. xerosis ATCC 373; dose 1.25% w/v): 2.6
log reduction at 1.5 % strength (C. xerosis ATCC 373; dose 1.5% w/v): 2.7
log reduction at 0.5 % strength (S. haemolyticus 114126): 0
log reduction at 0.75 % strength (S. haemolyticus 114126; dose 0.75% w/v): 0.7
log reduction at 1 % strength (S. haemolyticus 114126): 1.7
log reduction at 1.25 % strength (S. haemolyticus 114126): 6.3
log reduction at 1.5 % strength (S. haemolyticus 114126): 7.5
log reduction at 0.5 % strength (E. coli ATCC 10536; dose 0.500 % w/v, 45 s, in 20% EtOH): -0.1
log reduction at 0.6 % strength (E. coli ATCC 10536; dose 0.600 % w/v, 45 s, in 20% EtOH, read-out: Log reduction): 0.2
log reduction at 0.65 % strength (E. coli ATCC 10536; dose 0.650 % w/v, 45 s, in 20% EtOH): 0.5
log reduction at 0.7 % strength (E. coli ATCC 10536; dose 0.700 % w/v, 45 s, in 20% EtOH): 2.8
log reduction at 0.8 % strength (E. coli ATCC 10536; dose 0.800 % w/v, 45 s, in 20% EtOH): 7.3
log reduction at 0.3 % strength ([1]; read-out: Log reduction): 0.4
log reduction at 0.35 % strength ([1]; Dose 0.35 % w/v): 0.4
log reduction at 0.4 % strength ([1]; read-out: Log reduction): 0.7
log reduction at 0.45 % strength ([1]; Dose 0.45 % w/v, read-out: Log reduction): 1.2
log reduction at 0.5 % strength ([1]; Dose 0.5 % w/v): 2.9
log reduction at 0.3 % strength ([2]; Dose 0.300 % w/v): 0.2
log reduction at 0.4 % strength ([2]; Dose 0.400 % w/v): 3
log reduction at 0.45 % strength ([2]; Dose 0.450 % w/v): 5.1
log reduction at 0.5 % strength ([2]; Dose 0.500 % w/v): 7.5
log reduction at 0.6 % strength ([2]; Dose 0.600 % w/v): 7.5

OC/C=C/c1ccccc1 [Cinnamic alcohol, (2E)-3-phenyl-2-propen-1-ol]
log reduction at 0.25 % strength (C. xerosis ATCC 373; read-out: Log reduction): 0
log reduction at 0.5 % strength (C. xerosis ATCC 373): 2.9
log reduction at 0.6 % strength (C. xerosis ATCC 373): 4.3
log reduction at 0.7 % strength (C. xerosis ATCC 373; dose 0.7% w/v): 6
log reduction at 0.8 % strength (C. xerosis ATCC 373; dose 0.8% w/v): 7.2
log reduction at 0.25 % strength (S. haemolyticus 114126; read-out: Log reduction): 0.2
log reduction at 0.5 % strength (S. haemolyticus 114126): 4.1
log reduction at 1 % strength (S. haemolyticus 114126): 7.3
log reduction at 1.25 % strength (S. haemolyticus 114126): 7.3
log reduction at 1.5 % strength (S. haemolyticus 114126): 7.3
log reduction at 0.2 % strength (E. coli ATCC 10536; dose 0.200 % w/v, 45 s, in 20% EtOH): 0.1
log reduction at 0.25 % strength (E. coli ATCC 10536; dose 0.250 % w/v, 45 s, in 20% EtOH): 0.6
log reduction at 0.3 % strength (E. coli ATCC 10536; dose 0.300 % w/v, 45 s, in 20% EtOH): 1.4
log reduction at 0.35 % strength (E. coli ATCC 10536; dose 0.350 % w/v, 45 s, in 20% EtOH): 4.2
log reduction at 0.4 % strength (E. coli ATCC 10536; dose 0.400 % w/v, 45 s, in 20% EtOH): 7.3
log reduction at 0.25 % strength ([1]; Dose 0.25 % w/v, read-out: Log reduction): 4.1
log reduction at 0.3 % strength ([1]; read-out: Log reduction): 6.7
log reduction at 0.4 % strength ([1]; read-out: Log reduction): 7.5
log reduction at 0.15 % strength ([2]; Dose 0.15 % w/v): 0.5
log reduction at 0.175 % strength ([2]; Dose 0.175 % w/v): 1
log reduction at 0.2 % strength ([2]; Dose 0.2 % w/v): 1.5
log reduction at 0.25 % strength ([2]; Dose 0.25 % w/v): 4.9
log reduction at 0.3 % strength ([2]; Dose 0.3 % w/v): 7.8
